Test results as given in ChEMBL document CHEMBL1208766, “Synthesis of potent chemical inhibitors of dynamin GTPase” (Bioorg Med Chem Lett, 2010).
One block for each compound: values may come before it. Active and inactive are the calls of the source. The rule behind the calls is not given here.

What was measured:
COS-7 [1] = experiment: Inhibition of transferrin uptake in african green monkey COS7 cells by microscopic TexasRed imaging; type: functional, cell-based; details: Chlorocebus aethiops
COS-7 [2] = experiment: Inhibition of dynamin 1 mediated membrane fission in african green monkey Cos7 cells transfected with mRFP-LCa at 10 uM by total internal reflection fluorescence microscopy; type: cell-based; details: Chlorocebus aethiops
Homo sapiens = organism: Homo sapiens; experiment: Inhibition of GTPase activity of human mitochondrial Drp1 expressed in Escherichia coli BL-21
Dynamin-1 = target: T1, Dynamin-1 (Homo sapiens, UniProt Q05193); experiment: (§1) Inhibition of GTPase activity of Dynamin 1
T1 sequence (Q05193 whole entry): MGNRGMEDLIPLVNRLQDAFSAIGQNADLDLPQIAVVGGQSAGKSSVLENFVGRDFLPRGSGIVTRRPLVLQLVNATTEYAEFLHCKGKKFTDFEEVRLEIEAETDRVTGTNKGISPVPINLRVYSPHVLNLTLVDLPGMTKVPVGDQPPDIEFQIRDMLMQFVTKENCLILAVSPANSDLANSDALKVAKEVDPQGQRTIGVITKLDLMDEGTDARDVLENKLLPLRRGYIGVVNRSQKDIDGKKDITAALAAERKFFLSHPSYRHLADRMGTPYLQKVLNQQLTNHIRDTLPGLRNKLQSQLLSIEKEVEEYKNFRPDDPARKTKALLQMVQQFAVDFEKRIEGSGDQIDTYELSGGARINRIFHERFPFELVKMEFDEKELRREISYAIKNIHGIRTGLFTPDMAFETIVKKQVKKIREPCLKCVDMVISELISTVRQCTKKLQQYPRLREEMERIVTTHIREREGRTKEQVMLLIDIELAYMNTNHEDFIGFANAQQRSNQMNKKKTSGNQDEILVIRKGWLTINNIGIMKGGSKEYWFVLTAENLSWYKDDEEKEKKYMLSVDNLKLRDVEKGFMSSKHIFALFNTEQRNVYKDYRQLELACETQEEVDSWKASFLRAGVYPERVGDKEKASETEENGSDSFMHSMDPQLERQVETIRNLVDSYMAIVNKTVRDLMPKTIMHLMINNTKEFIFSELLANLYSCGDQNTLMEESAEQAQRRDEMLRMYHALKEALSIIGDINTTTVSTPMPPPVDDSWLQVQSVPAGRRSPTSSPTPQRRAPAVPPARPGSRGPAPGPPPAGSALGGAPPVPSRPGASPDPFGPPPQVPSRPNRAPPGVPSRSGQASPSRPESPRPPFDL

Dynamin-1 (Homo sapiens) = target: T2, Dynamin-1 (Homo sapiens) (UniProt Q05193); experiment: as §1; set-up: concentration or dose not given beside the values; details: concentration not given here
T2 sequence (whole entry): T1 sequence (Q05193 whole entry)

[3] = test system: Cell division control protein 42 homolog; experiment: Inhibition of GTPase activity of Cdc42
COS-7 [4] = experiment: Inhibition of transferrin uptake in african green monkey COS7 cells after 30 mins by microscopic TexasRed imaging; type: functional, cell-based; details: Chlorocebus aethiops
[5] = Cytotoxicity against african green monkey COS7 cells after 12 hrs; type: cell-based; details: chlorocebus aethiops, cos-7, 12 h

SMILES: NCCc1ccc(OC(=O)c2ccc3ccccc3c2)cc1
inhibition (Dynamin-1 (Homo sapiens)): 0%

SMILES: COc1ccc(/C=N/NC(=O)c2cc3ccccc3cc2O)cc1O
inhibition [3]: inactive
inhibition (COS-7 [4]): inactive
IC50 (COS-7 [1]): 2.6 µM
inhibition (COS-7 [2]): Active
Activity [5]: Non-toxic
inhibition (Homo sapiens): Active
IC50 (Dynamin-1): 3.6 µM
inhibition (Dynamin-1 (Homo sapiens)): 74.7%

SMILES: Cc1ccc(/C=N/NC(=O)c2ccc3ccccc3c2)cc1C
inhibition (Dynamin-1 (Homo sapiens)): 0%

SMILES: O=C(NCCc1ccc(O)cc1)c1ccc2ccccc2c1
inhibition (Dynamin-1 (Homo sapiens)): 0%

SMILES: O=C(N/N=C/c1cc(O)ccc1[N+](=O)[O-])c1cc2ccccc2cc1O
inhibition (Dynamin-1 (Homo sapiens)): 0%

SMILES: O=C(N/N=C/c1ccc(O)c(O)c1)c1ccc2ccccc2c1
inhibition [3]: inactive
inhibition (COS-7 [4]): inactive
IC50 (COS-7 [1]): 4 µM
inhibition (COS-7 [2]): Active
Activity [5]: Non-toxic
inhibition (Homo sapiens): Active
IC50 (Dynamin-1): 5.1 µM
inhibition (Dynamin-1 (Homo sapiens)): 73.2%

SMILES: O=C(OP(=O)(N1CCOC1=O)N1CCOC1=O)c1ccc2ccccc2c1
inhibition (COS-7 [1]): Active
inhibition (Dynamin-1 (Homo sapiens)): 0%

Second part, led by results:

inhibition (Homo sapiens): Active
IC50 (Dynamin-1): 10.8 µM
inhibition (Dynamin-1 (Homo sapiens)): 69.8%
SMILES: O=C(N/N=C/c1ccc(O)c(O)c1)c1cc2ccccc2cc1O [DYNASORE]
IC50 (COS-7 [1]): 15 µM
inhibition (COS-7 [2]): inactive

inhibition (Dynamin-1 (Homo sapiens)): 0%
SMILES: Cc1ccc(/C=N/NC(=O)c2cc3ccccc3cc2O)cc1C

inhibition (Dynamin-1 (Homo sapiens)): 0%
SMILES: O=C(N/N=C/c1ccc(Cl)c(Cl)c1)c1ccc2ccccc2c1

inhibition (Dynamin-1 (Homo sapiens)): 0%
SMILES: O=C(N/N=C/c1ccc(Cl)c(Cl)c1)c1cc2ccccc2cc1O
